Results reported in article PMC9221509, “Discovery of a Novel Antimicrobial Peptide, Temporin-PKE, from the Skin Secretion of Pelophylax kl. esculentus, and Evaluation of Its Structure-Activity Relationships” (Biomolecules, 2022).
Converted amounts (≈) assume the structure as drawn. Where two headings read alike, the source gives them in different places. Non-standard residues stand in square brackets, D forms with d. Residues, ends and D or L forms follow the SMILES beside them. No end group written: not given here.

How the values were obtained:
[1] = system: E. coli (ATCC CRM 8739) biofilm; type: cell-based, Escherichia coli; details: ATCC CRM 8739, 24 h
Procedure: (§1) The anti-biofilm activities of the peptides against S. aureus (ATCC 6538), MRSA (NCTC 12493), E. faecalis (NCTC 12697), E. coli (ATCC CRM 8739), K. pneumoniae (ATCC 43816), and P. aeruginosa (ATCC CRM 9027), were evaluated. For the MBIC assay, 99 µL of bacterial suspension (5 × 10^5 CFU/mL) was mixed with 1 µL of serial dilutions (from 100 µM to 51,200 µM) of temporin-PKE and its analogues in a 96-well plate, and the plate was incubated in a moist shaking incubator at a speed of 200 rpm at 37 °C for 24 h. For the MBEC assay, 100 µL of bacterial suspension (5 × 10^5 CFU/mL) in each well was seeded in a new 96-well plate, and the plate was put into the same shaking incubator for 24 h incubation to allow biofilm formation on the well. After biofilm formation, the biofilm in the plate was washed with PBS twice. The PBS was aspirated between washes to remove planktonic bacterial cells. The washed biofilm in each well was treated with 100 µL of serial dilutions (from 1 µM to 512 µM) of the test peptides. Then, the plate was incubated in the same shaking incubator for another 24 h. After being washed by PBS twice and fixed with methanol, the biofilm in each well was incubated with 100 µL of 0.1% crystal violet for 30 min, and the stained biofilm was dissolved in 100 µL of glacial acidic acid after drying. The solutions were transferred to a new microplate, and the absorbance of each well was measured using a microplate reader (EL808, Biolise BioTek, Winooski, VT, USA) set to 595 nm wavelength. The MBIC was the minimum concentration of the peptide showing no biofilm formation. The MBEC is the lowest concentration of the peptide capable of eradicating the mature biofilms, which had no biofilm in the well.

[2] = system: S. aureus (ATCC 6538); test: microbe, parasite or virus in culture; type: cell-based, Staphylococcus aureus; details: for MBC: ATCC 6538, 18 h; for MIC: ATCC 6538, 24 h
Procedure: (§2) The antimicrobial activities of peptides were evaluated against the Gram-positive bacteria, S. aureus (ATCC 6538), methicillin-resistant Staphylococcus aureus (MRSA) (NCTC 12493), Enterococcus faecalis (E. faecalis) (NCTC 12697); the Gram-negative bacteria, E. coli (ATCC CRM 8739), Klebsiella pneumoniae (K. pneumoniae) (ATCC 43816), Pseudomonas aeruginosa (P. aeruginosa) (ATCC CRM 9027); and the yeast, Candida albicans (C. albicans) (ATCC CRM 10231). Clinical isolates of MRSA (B042 V2E1 A), E. coli (ATCC BAA-2340), K. pneumoniae (ATCC BAA-1705), and P. aeruginosa (B004 V2S2 B) were also used to determine their antimicrobial activities. The suspension of microorganisms in the logarithmic growth phase with a specific final density (Gram-negative and Gram-positive bacteria: 5 × 10^5 CFU/mL; yeast: 1 × 10^6 CFU/mL) was incubated with different peptide concentrations from 1 µM to 512 µM at 37 °C for 24 h. PBS was used as the negative control, and norfloxacin and amphotericin B were selected as the positive control for bacteria and yeast, respectively. Since the Norfloxacin had weak activities against P. aeruginosa (B004 V2S2 B) and K. pneumoniae (ATCC BAA 1705), gentamicin was used as the positive control for these two bacterial strains. The absorbance of each well was obtained using a microplate reader (EL808, Biolise BioTek, Winooski, VT, USA) set at 550 nm wavelength. The MIC value was the lowest concentration of a peptide that inhibits visible bacterial growth. Once the MIC values were determined, an aliquot from the bacterial culture exposed to the peptide at or above its MIC value was inoculated on a Mueller Hinton agar (MHA) and was incubated at 37 for 18 h. The MBC value was the lowest concentration of a peptide that kills 99.9% of bacteria.

[3] = system: K. pneumoniae (ATCC 43816); type: cell-based, Klebsiella pneumoniae; details: ATCC 43816, 24 h
Procedure: as §2
According to the procedures in a previous article, the analysis of the sensitivity of the peptides was determined by measuring MIC values in the presence of different types of salts and 10% fetal bovine serum. MRSA (NCTC 12493) and K. pneumoniae (ATCC 43816) were selected as the subjects of these assays. Various salts at different concentrations, including 150 mM NaCl, 4.5 mM KCl, 6 μM NH4Cl, 1 mM MgCl2, […], […], and 10% serum (Gibco, Auckland, New Zealand), were added to the MHB medium for the examination of the MIC values which were determined as described in Section 2.7.

[4] = system: C. albicans (ATCC CRM 10231); test: organism not typed; type: cell-based, Candida albicans; details: for MBC: ATCC CRM 10231, 18 h; for MIC: ATCC CRM 10231, 24 h
Procedure: as §2

[5] = system: S. aureus (ATCC 6538) biofilm; type: cell-based, Staphylococcus aureus; details: ATCC 6538, 24 h
Procedure: as §1

[6] = system: horse red blood cells; type: cell-based
Procedure: As a previous study described in detail, the haemolysis activity assays of peptides were conducted on defibrinated horse blood (TCS Biosciences Ltd., Buckingham, UK) with an erythrocyte suspension concentration of 2% (v/v). The 120 μL of peptide solution in a gradient concentration ranging from 1µM to 512 µM was mixed with the same volume of 2% horse red blood cell suspension, and the complex was incubated at 37 °C for 2 h. PBS and 0.1% Triton X-100 were chosen as the negative and positive control, respectively. After centrifugation at 900× g for 5 min, the absorbance of the supernatant was analysed using a microplate reader (EL808, Biolise BioTek, Winooski, VT, USA) set to a wavelength of 570 nm. The equation to calculate the haemolysis of the peptides is shown below: Haemolysis (%)=A−An/Ap−An×100% where A represents the absorbance of each treatment group, An represents the average absorbance of the negative control group, and Ap represents the average absorbance of the positive control group.

[7] = system: E. coli (ATCC CRM 8739); test: microbe, parasite or virus in culture; type: cell-based, Escherichia coli; details: for MBC: ATCC CRM 8739, 18 h; for MIC: ATCC CRM 8739, 24 h
Procedure: as §2

[8] = system: E. faecalis (NCTC 12697); test: microbe, parasite or virus in culture; type: cell-based, Enterococcus faecalis; details: for MBC: NCTC 12697, 18 h; for MIC: NCTC 12697, 24 h
Procedure: as §2

Compound	MBIC [1] [µM]	MBC [2] [µM]	MIC [2] [µM]	MIC against K. pneumoniae in the presence of 4 µM FeCl3 [3] [µM]	MIC against K. pneumoniae in the presence of 6 µM NH4Cl [3] [µM]	MIC against K. pneumoniae in the presence of 8 µM ZnCl2 [3] [µM]	MIC against K. pneumoniae in the presence of 1 mM MgCl2 [3] [µM]	MIC against K. pneumoniae in the presence of 2 mM CaCl2 [3] [µM]	MIC against K. pneumoniae in the presence of 4.5 mM KCl [3] [µM]	MIC against K. pneumoniae in the presence of 150 mM NaCl [3] [µM]	MIC against K. pneumoniae in the presence of 10% FBS [3] [µM]	MIC against K. pneumoniae, Negative [3] [µM]	MBIC [5] [µM]	HC50 [6] [µM]	HC50 ([6]; red cells of horse, 2 h) [µM]	MBC [7] [µM]	MBC [8] [µM]	MIC [8] [µM]	MBC ([4]; read-out: MBC) [µM]	MIC ([4]; read-out: MIC) [µM]	also measured
FLPKIIGKLSSKLPKIF-NH2 [Temporin-PKE-4K]	128	32	32	16	16	16	64	128	16	64	64	16	32	1671	1671	4	32	32	–	–	MBC [4]: 64 µM; MIC [4]: 64 µM; MIC [7]: 4 µM
FLPLIIGALSSLLPKIF-NH2 [Temporin-PKE]	>512	2	2	>512	>512	>512	>512	>512	>512	>512	>512	>512	2	6.58	6.58	–	8	8	>512	>512	MBC ([7]; read-out: MBC): >512 µM; MIC ([7]; read-out: MIC): >512 µM
FLPKIIGKLSSLLPKIF-NH2 [Temporin-PKE-3K]	16	2	2	16	4	4	16	16	4	16	16	4	2	87.47	87.47	2	2	2	64	32	MIC [7]: 2 µM
CC[C@@H](C)[C@@H](NC(=O)[C@H](CCCCN)NC(=O)[C@@H]1CCCN1C(=O)[C@H](CC(C)C)NC(=O)[C@H](CC(C)C)NC(=O)[C@H](CO)NC(=O)[C@H](CO)NC(=O)[C@H](CC(C)C)NC(=O)[C@H](C)NC(=O)CNC(=O)[C@@H](NC(=O)[C@@H](NC(=O)[C@H](CC(C)C)NC(=O)[C@@H]1CCCN1C(=O)[C@H](CC(C)C)NC(=O)[C@@H](N)Cc1ccccc1)[C@@H](C)CC)[C@@H](C)CC)C(=O)N[C@@H](Cc1ccccc1)C(N)=O [Temporin-PKE-i] (H-FLPLIIGALSSLLPK[dI]F-NH2)	>512	2 (≈ 3.68 µg/mL)	2 (≈ 3.68 µg/mL)	>512	>512	>512	>512	>512	>512	>512	>512	>512	2	–	68.37	–	4 (≈ 7.37 µg/mL)	4 (≈ 7.37 µg/mL)	>512	>512	MBC ([7]; read-out: MBC): >512 µM; MIC ([7]; read-out: MIC): >512 µM
